In patent publication US20210037856A1, “Ruminant Feed Composition Comprising A Muramidase” (Novozymes A/S, priority 2018, published 2021):
Where a name gives a salt, the structure may show the parent alone.

Key:
[1] = tested on: rumen fluid; experiment: in vitro ruminal fermentation, 13 muramidases, 12 h (Example 3); design: species or system cow; details: PC at dosage 0.01 mg/40 mL
Experimental: (§1) The trial was performed by Alimetrics (Alimetrics Ltd, Koskelontie 19B, FIN-02920 Espoo, Finland) using 120 mL serum bottles as fermentation vessels. The fermentation preparation and procedure is presented in Kettunen et al., (Kettunen H., J. Vuorenmaa, D. Gaffney and J. Apajalahti (2016): Yeast hydrolysate product enhances ruminal fermentation in vitro. J. App. Anim. Nutr., Vol. 4; e1; page 1 of 7). In short, the method is as follows: All bottles were initially filled with 1 g of feed DM composed from corn silage, barley meal, soybean meal, at the amounts of 0.5, 0.4, and 0.1 g DM, respectively. Subsequently, the bottles were flushed with CO2 passed through a hot copper catalyst for O2 scavenging and sealed with thick butyl rubber stopper. Anaerobic, reduced and temperature adjusted (+38° C.) artificial saliva buffer solution (Modified from Agriculture Handbook No. 379, (USDA, Washington, D.C., 1975), volume of 37.65 ml), freshly strained rumen fluid (5% inoculum; volume of 2 ml), and test compounds (volume of 0.35 ml) was introduced into the fermentation vessels under the oxygen-free CO2 flow. Following rumen fluid collection from a ruminal cannulated cow. Rumen fluid was pumped directly from the rumen into a preheated thermos and immediately closed, and transported to Alimetrics laboratory. The rumen fluid was used for inoculation within 2 hours of harvest. To ensure that both liquid and particle associated ruminal microbes were present in the inoculum both fractions were obtained. Liquid and solid fractions were strained through a metal mesh (grid size 3×3 mm) under anaerobic conditions prior to buffer dilution.
(§2) Following inoculation with rumen fluid, buffer and test solution the vessels were sealed with the butyl rubber septum's. All fermentation vessels were inoculated in random order to prevent the possible block effects. Inoculation time for each fermentation vessel was registered and was taken into account op on each sampling to ensure that duration of the fermentation was the same for each sample. The fermentation was continued for 12 h in a gyratory shaker at +38° C. Fermentation gas produced was measured and relived by collection of the fermentation gas in syringes at time 3, 6, 9, and 12 h. Feed residues were measured after 12 h fermentation.
(§3) The trial design was a dosage response, complete randomized design with 28 treatments using 150 fermentation vessels according to table 3. The 13 muramidase solutions were diluted to the concentration needed in enzyme buffer (BSA, Tween 20, acetate-buffer, Calcium, NaOH, adjusted to pH 6). Negative control was supplemented with the same buffer solution that was used for diluting the enzymes to reach the same liquid volume as the supplemented fermentation vessels. The ionophore Monensin (Monensin sodium salt, 90-95% TLC (Sigma Aldrich; Product code: M5273-1G)) was chosen as a positive control because it is a ruminants feed additive that affects volatile fatty acids (VFA) production.
(§4) Liquid samples obtained at 12 h were analyzed for the concentration of VFA (acetate, propionate, butyrate, and valerate) by GC-FID using a glass column packed with 80/120 carbopack B-DA/4% Carbowax stationary and helium as a carrier gas (Kettunen H., J. Vuorenmaa, T. Rinttilä, H. Grönberg, E. Valkonen and J. Apajalahti (2015): Natural resin acid-enriched composition as a modulator of intestinal microbiota and performance enhancer in broiler chicken. J. App. Anim. Nutr., Vol. 3; e2; page 1 of 9).
(§5) Digestibility of dry matter was quantified by determination of dry matter in the original feed matrix and in all fermentation vessels after 12 h of fermentation. Feed residues from the fermentation vessels were obtained by filtration tared sintered glass filters, washed with water and dried at 105° C. for 12 hours. Finally, the glass filters are weighed for the residual feed dry matter.
(§6) Dry matter digestibility (DMd) was calculated at the ratio between feed residues after end fermentation and the dry matter fed. […]

[2] = tested on: rumen fluid; experiment: in vitro ruminal fermentation, 22 muramidases, 12 h (Example 4); design: species or system cow; DMd: unit not given here; details: PC (Monensin) 0.01 or 0.10 mg/40 ml, not stated which
Experimental: as §1, with “was collected” for “collection”
as §2, with “solution,” for “solution”
as §3, with “27” for “28”, “145” for “150”, “5. […]” for “3. The 13 muramidase solutions were diluted to the concentration needed in enzyme buffer (BSA, Tween 20, acetate-buffer, Calcium, NaOH, adjusted to pH 6).”
as §4, with “Samples Obtained” for “samples obtained”, “Analyzed” for “analyzed”, “Concentration” for “concentration”, “(Acetate, Propionate,” for “(acetate, propionate,”
as §5, §6

[3] = tested on: Staphylococcus aureus; details: does not cleave N,6-O-diacetylmuramic acid in cell walls; Masschalck et al. 2002; cited from earlier work
[4] = dry matter digestibility after 12 h
[5] = summed carbon in VFA after 12 h

Compound	Acetate ([1]; VFA production after 12 h) [mmol/L]	Butyrate ([1]; VFA production after 12 h) [mmol/L]	Propionate ([1]; VFA production after 12 h) [mmol/L]	DMd [1, 4]	Total VFA ([1]; sum of VFA after 12 h) [mmol/L]	Carbon in VFA [1, 5] [mmol/L]	Acetate ([2]; VFA production after 12 h) [mmol/L]	Butyrate ([2]; VFA production after 12 h) [mmol/L]	Propionate ([2]; VFA production after 12 h) [mmol/L]	DMd [2, 4]	Total VFA ([2]; sum of VFA after 12 h) [mmol/L]	Carbon in VFA [2, 5] [mmol/L]	lysis of Staphylococcus aureus [3]
CC[C@@]1([C@@H]2O[C@@H]([C@H]3O[C@@](O)(CO)[C@H](C)C[C@@H]3C)C[C@@H]2C)CC[C@H]([C@]2(C)CC[C@]3(C[C@H](O)[C@@H](C)[C@@H]([C@@H](C)[C@@H](OC)[C@H](C)C(=O)O)O3)O2)O1 [PC, Monensin sodium salt, reference compound]	47.5	3.86	46.4	0.55	98	251	44.2	3.7	42.8	0.51	91	234	–
Muramidase extracted from hen egg white: GH22 muramidase from hen egg white, primary product available on the commercial market	–	–	–	–	–	–	–	–	–	–	–	–	unable to lyse
